Patent US20140193827A1 (TEVA PHARMACEUTICAL INDUSTRIES, LTD., priority 2013, published 2014)

System: GA-primed murine splenocytes
Experiment: Non-parametric Wilcoxon rank sum test GA vs PG
Format: cell-based, mouse
Excerpt: Nominal p-values were FDR adjusted and only probes that were less than or equal to 0.05 were considered.

Substance: glatiramer acetate [GA]
- CD40 expression, GA vs PG: significantly lower expression
